# From ChEMBL document CHEMBL1201862, “PubChem BioAssay data set” (2004)
#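 Dose response: 5 concentrations. Exposure: 48 h. Format: 96-well plates. Endpoint: linear interpolation; highest concentration if not reached. GI50 marks 50% less growth.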 The source made the active and inactive calls. Cut-off read from the data, not from the text of the source: active = GI50 up to about 1.1 µM and inactive = higher.
# Legend:
# Test in all cases: NCI anticancer screen, dose series, 48 h
# OVCAR-4 = system: OVCAR-4
# SF-268 = system: SF-268
# MOLT-4 = system: MOLT-4
# CAKI-1 = system: CAKI-1
# TK-10 = system: TK-10
# HT-29 = system: HT-29
# COLO 205 = system: COLO 205
# K562 = system: K562
# NCI-H522 = system: NCI-H522
# UACC-62 = system: UACC-62
# HCT-15 = system: HCT-15
# HL-60 = system: HL-60
# NCI-H23 = system: NCI-H23
# OVCAR-5 = system: OVCAR-5
# SN12C = system: SN12C
# SF-539 = system: SF-539
# MDA-N = system: MDA-N
# ACHN = system: ACHN
# UACC-257 = system: UACC-257
# MDA-MB-231 = system: MDA-MB-231
Compound,GI50 (OVCAR-4),GI50 (SF-268),GI50 (MOLT-4),GI50 (CAKI-1),GI50 (TK-10),GI50 (HT-29),GI50 (COLO 205),GI50 (K562),GI50 (NCI-H522),GI50 (UACC-62),GI50 (HCT-15),GI50 (HL-60),GI50 (NCI-H23),GI50 (OVCAR-5),GI50 (SN12C),GI50 (SF-539),GI50 (MDA-N),GI50 (ACHN),GI50 (UACC-257),GI50 (MDA-MB-231)
CCOC(=O)/C(=C\NCC(OCC)OCC)c1nc2ccccc2[nH]1,31.9 µM (inactive),32.6 µM (inactive),17.1 µM (inactive),38.9 µM (inactive),31.3 µM (inactive),22.4 µM (inactive),16.5 µM (inactive),22.8 µM (inactive),21.4 µM (inactive),16.3 µM (inactive),10 µM,23.9 µM (inactive),21.4 µM (inactive),48.6 µM (inactive),39.2 µM (inactive),26.2 µM (inactive),29 µM (inactive),35.2 µM (inactive),25.1 µM (inactive),–
CC1CCCC2=C1C(c1ccc(Cl)cc1)n1c(s/c(=C\c3ccc(Cl)cc3)c1=O)=N2 (centres undefined),–,> 100 µM (inactive),–,> 100 µM (inactive),> 100 µM (inactive),> 100 µM (inactive),> 100 µM (inactive),> 100 µM (inactive),–,> 100 µM (inactive),> 100 µM,–,–,> 100 µM (inactive),> 100 µM (inactive),–,> 100 µM (inactive),> 100 µM (inactive),> 100 µM (inactive),> 100 µM (inactive)
O=C(O)CC(NC(=O)C(F)(F)F)C(=O)NC1Cc2ccccc2OC1=O (centres undefined),–,> 100 µM (inactive),> 100 µM (inactive),> 100 µM (inactive),> 100 µM (inactive),> 100 µM (inactive),–,> 100 µM (inactive),> 100 µM (inactive),> 100 µM (inactive),> 100 µM,–,> 100 µM (inactive),> 100 µM (inactive),> 100 µM (inactive),> 100 µM (inactive),> 100 µM (inactive),> 100 µM (inactive),> 100 µM (inactive),–
Cc1cc(C)cc(Nc2nnc3n2S(=O)(=O)c2cc(C)c(Cl)cc2S3)c1,8.69 µM (inactive),3.81 µM (inactive),3.08 µM (inactive),7.11 µM (inactive),10.7 µM (inactive),7.26 µM (inactive),4.72 µM (inactive),3.01 µM (inactive),3.56 µM (inactive),5.65 µM (inactive),4.37 µM,4.17 µM (inactive),2.96 µM (inactive),5.35 µM (inactive),5.61 µM (inactive),2.89 µM (inactive),–,7.66 µM (inactive),4.35 µM (inactive),4.73 µM (inactive)
Cc1cc2c(cc1C)C(=O)/C(=C/c1ccccc1C(=O)O)C2,35 µM (inactive),31.8 µM (inactive),25.4 µM (inactive),72.4 µM (inactive),> 100 µM (inactive),39.1 µM (inactive),19.5 µM (inactive),37.2 µM (inactive),65.6 µM (inactive),54.7 µM (inactive),36.6 µM,30.5 µM (inactive),19.6 µM (inactive),23.6 µM (inactive),45.2 µM (inactive),18.7 µM (inactive),47.8 µM (inactive),55 µM (inactive),> 100 µM (inactive),–
COC1=CC(c2ccc(Br)[nH]2)=N/C1=C/NCC(C)C,1.86 µM (inactive),2.26 µM (inactive),1.33 µM (inactive),2.36 µM (inactive),2.55 µM (inactive),1.24 µM (inactive),1.24 µM (inactive),2.65 µM (inactive),1.49 µM (inactive),1.98 µM (inactive),1.3 µM,1.39 µM (inactive),1.58 µM (inactive),2.11 µM (inactive),2.21 µM (inactive),2.06 µM (inactive),–,1.21 µM (inactive),2.07 µM (inactive),2.02 µM (inactive)
CC(=O)OC1CC2C(C)(C)C(=O)C=C[C@]2(C)C2CCC3(C)C(=CCC3[C@H](CO)C[C@H](O)C(=O)C(C)(C)O)[C@]12C (some centres undefined),59.8 µM (inactive),25.9 µM (inactive),22.6 µM (inactive),15.9 µM (inactive),26.5 µM (inactive),13.8 µM (inactive),42.1 µM (inactive),27 µM (inactive),23.6 µM (inactive),14.2 µM (inactive),17.8 µM,19.5 µM (inactive),> 10 µM (inactive),31 µM (inactive),26.4 µM (inactive),18.7 µM (inactive),–,17.3 µM (inactive),14.5 µM (inactive),–
CC(=O)OCC1OC(OC2CC3C(C)(C)C(O)CC[C@]3(C)C3CCC45CC4(CC[C@H]5C(C)CC(O)C4OC4(C)C)[C@]23C)C(O)C(O)C1O (some centres undefined),8.73 µM (inactive),6.38 µM (inactive),0.701 µM (active),8.87 µM (inactive),8.73 µM (inactive),8.38 µM (inactive),7.24 µM (inactive),1.85 µM (inactive),4.89 µM (inactive),7.45 µM (inactive),8.45 µM,0.973 µM (active),8.75 µM (inactive),9.12 µM (inactive),8.24 µM (inactive),7.98 µM (inactive),–,8.63 µM (inactive),9.04 µM (inactive),–
CN(C(=O)[C@@H](NC(=O)OC(C)(C)C)c1ccccc1)[C@H]1CCCC[C@@H]1N1CCCC1,> 100 µM (inactive),> 100 µM (inactive),> 100 µM (inactive),> 100 µM (inactive),> 100 µM (inactive),> 100 µM (inactive),> 100 µM (inactive),> 100 µM (inactive),> 100 µM (inactive),> 100 µM (inactive),> 100 µM,> 100 µM (inactive),> 100 µM (inactive),> 100 µM (inactive),> 100 µM (inactive),> 100 µM (inactive),–,> 100 µM (inactive),72.6 µM (inactive),> 100 µM (inactive)
CN(C)/N=N/c1c[nH]nc1C(N)=O,> 100 µM (inactive),> 100 µM (inactive),> 100 µM (inactive),> 100 µM (inactive),> 100 µM (inactive),> 100 µM (inactive),> 100 µM (inactive),54.8 µM (inactive),42.9 µM (inactive),16.2 µM (inactive),64.1 µM,> 100 µM (inactive),> 100 µM (inactive),> 100 µM (inactive),> 100 µM (inactive),> 100 µM (inactive),–,76.7 µM (inactive),> 100 µM (inactive),–
O=C(c1ccccc1)c1c(C(F)(F)F)[n+]([O-])c2ccccc2[n+]1[O-],0.302 µM (active),0.995 µM (active),0.129 µM (active),0.446 µM (active),1.64 µM (inactive),0.687 µM (active),1.18 µM (inactive),0.209 µM (active),0.459 µM (active),1.68 µM (inactive),0.785 µM,0.205 µM (active),1.43 µM (inactive),1.31 µM (inactive),0.951 µM (active),1.83 µM (inactive),–,1.36 µM (inactive),1.84 µM (inactive),1.42 µM (inactive)
O=C1c2ccccc2C(=O)C1C(c1ccc(F)cc1)C1C(=O)c2ccccc2C1=O,> 100 µM (inactive),> 100 µM (inactive),59.4 µM (inactive),> 100 µM (inactive),> 100 µM (inactive),> 100 µM (inactive),> 100 µM (inactive),> 100 µM (inactive),> 100 µM (inactive),> 100 µM (inactive),> 100 µM,37.8 µM (inactive),> 100 µM (inactive),> 100 µM (inactive),> 100 µM (inactive),> 100 µM (inactive),–,> 100 µM (inactive),> 100 µM (inactive),–
CC(C)(C)OC(=O)C1/C(=C/CBr)CN1C(=O)OC(C)(C)C (centres undefined),2.86 µM (inactive),4.85 µM (inactive),6.56 µM (inactive),16.5 µM (inactive),16.9 µM (inactive),23.7 µM (inactive),2.56 µM (inactive),2.73 µM (inactive),–,15.3 µM (inactive),8.67 µM,2.66 µM (inactive),10.5 µM (inactive),18.7 µM (inactive),12.6 µM (inactive),18.5 µM (inactive),14.7 µM (inactive),16.7 µM (inactive),16.3 µM (inactive),–
COC12OC3(C4OC41)C(C(=O)O[C@H]3CO[Si](C)(C)C(C)(C)C)C2S(=O)(=O)c1ccccc1 (some centres undefined),–,–,2.25 µM (inactive),2.71 µM (inactive),4.06 µM (inactive),–,21.9 µM (inactive),1.6 µM (inactive),17.1 µM (inactive),> 4.65 µM (inactive),3.16 µM,< 0.01 µM (active),> 100 µM (inactive),> 4.65 µM (inactive),> 4.65 µM (inactive),> 100 µM (inactive),–,2.69 µM (inactive),> 4.65 µM (inactive),> 4.65 µM (inactive)
Cc1ccc(NC(=O)NC(=O)c2ccc([N+](=O)[O-])cc2[N+](=O)[O-])cc1Oc1ncc(Cl)cn1,11.4 µM (inactive),0.713 µM (active),0.362 µM (active),0.479 µM (active),14.4 µM (inactive),0.3 µM (active),0.415 µM (active),0.275 µM (active),0.195 µM (active),0.229 µM (active),0.44 µM,0.218 µM (active),0.564 µM (active),0.828 µM (active),0.578 µM (active),0.287 µM (active),–,1.33 µM (inactive),0.689 µM (active),0.614 µM (active)
